From ChEMBL document CHEMBL1201862, “PubChem BioAssay data set” (2004)
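Exposure lasted 48 hours, with cells grown in 96-well plates and compounds tested at five concentrations. Here, GI50 denotes the concentration required for 50% inhibition of growth.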 Active and inactive are the calls of the source. No stated cut-off is given here; in the data, active = GI50 up to about 1.1 µM and inactive = higher.

Experiments:
Test in all cases: growth of human tumour cells (NCI), 48 h
[1] = test system: A549
[2] = test system: HL-60
[3] = test system: HOP-92
[4] = test system: M14
[5] = test system: NCI-H460
[6] = test system: OVCAR-3
[7] = test system: RXF 393
[8] = test system: SF-268
[9] = test system: SF-295
[10] = test system: SF-539
[11] = test system: SK-MEL-5
[12] = test system: SN12C
[13] = test system: SNB-75
[14] = test system: SW-620
[15] = test system: UACC-62
[16] = test system: OVCAR-8
[17] = test system: HCT-15

| Compound | GI50 [1] | GI50 [2] | GI50 [3] | GI50 [4] | GI50 [5] | GI50 [6] | GI50 [7] | GI50 [8] | GI50 [9] | GI50 [10] | GI50 [11] | GI50 [12] | GI50 [13] | GI50 [14] | GI50 [15] | GI50 [16] | GI50 [17] [µM] |
| --- | --- | --- | --- | --- | --- | --- | --- | --- | --- | --- | --- | --- | --- | --- | --- | --- | --- |
| CCC(C(=O)O)c1ccc(OCc2ccccc2)cc1 (stereo not given) | > 100 µM (inactive) | > 100 µM (inactive) | > 100 µM (inactive) | > 100 µM (inactive) | > 100 µM (inactive) | > 100 µM (inactive) | > 100 µM (inactive) | > 100 µM (inactive) | > 100 µM (inactive) | > 100 µM (inactive) | > 100 µM (inactive) | > 100 µM (inactive) | 70 µM (inactive) | > 100 µM (inactive) | > 100 µM (inactive) |  |  |
| CC1=C(C(=O)Nc2c(C)cccc2C)C(c2ccccc2Cl)C(C(=O)Nc2c(C)cccc2C)=C(C)N1 | > 100 µM (inactive) | > 100 µM (inactive) | > 100 µM (inactive) | > 100 µM (inactive) | > 100 µM (inactive) | > 100 µM (inactive) | > 100 µM (inactive) | > 100 µM (inactive) | > 100 µM (inactive) | > 100 µM (inactive) | > 100 µM (inactive) | > 100 µM (inactive) | 94.8 µM (inactive) | > 100 µM (inactive) |  | > 100 µM (inactive) |  |
| CC12CCCCC1(C)C2Sc1ccccc1 (stereo not given) | 43.6 µM (inactive) | 17.5 µM (inactive) | 26.7 µM (inactive) | 88.5 µM (inactive) | > 68.4 µM (inactive) | 27.9 µM (inactive) | 23.9 µM (inactive) | 42.3 µM (inactive) | 35.6 µM (inactive) | > 100 µM (inactive) | 31 µM (inactive) | 64.3 µM (inactive) | 70.8 µM (inactive) | 42.8 µM (inactive) | 56.9 µM (inactive) | 42 µM (inactive) | 55.5 |
| O=c1cc[nH]c2ccc3nn[nH]c3c12 | > 100 µM (inactive) | > 100 µM (inactive) | > 100 µM (inactive) | > 100 µM (inactive) | > 100 µM (inactive) | > 100 µM (inactive) | > 100 µM (inactive) | > 100 µM (inactive) | > 100 µM (inactive) | > 100 µM (inactive) | > 100 µM (inactive) | > 100 µM (inactive) | > 100 µM (inactive) | > 100 µM (inactive) | > 100 µM (inactive) | > 100 µM (inactive) | > 100 |
| CCOc1ccccc1NC(=O)C1=C(C)NC(C)=C(C(=O)Nc2ccccc2OCC)C1c1ccc([N+](=O)[O-])cc1 | > 100 µM (inactive) | 34.7 µM (inactive) | 10.5 µM (inactive) | 89.5 µM (inactive) | 63.2 µM (inactive) | > 100 µM (inactive) | > 100 µM (inactive) | > 100 µM (inactive) | 21.3 µM (inactive) | > 100 µM (inactive) |  | > 100 µM (inactive) | 53.1 µM (inactive) | > 100 µM (inactive) | 26.1 µM (inactive) |  | 75.3 |
| Cc1ccc(NC(=O)C(=O)CC(=O)c2c(C)[n+]([O-])c3ccccc3[n+]2[O-])cc1C | > 100 µM (inactive) | > 100 µM (inactive) | > 100 µM (inactive) | 74.8 µM (inactive) | 83 µM (inactive) | 48.4 µM (inactive) | 44.7 µM (inactive) | > 100 µM (inactive) | > 100 µM (inactive) | > 100 µM (inactive) | > 100 µM (inactive) | > 100 µM (inactive) | > 100 µM (inactive) | 49.4 µM (inactive) | > 100 µM (inactive) | > 100 µM (inactive) | 83.2 |
| O=C(c1ccccc1)c1ccc2c(c1)N=C(c1ccc(Cl)c(Cl)c1)CC(c1ccc3ccccc3c1)N2 (stereo not given) | > 100 µM (inactive) | 69 µM (inactive) | > 100 µM (inactive) | > 100 µM (inactive) | > 100 µM (inactive) |  | > 100 µM (inactive) | > 100 µM (inactive) | > 100 µM (inactive) | > 100 µM (inactive) | > 100 µM (inactive) | > 100 µM (inactive) | > 100 µM (inactive) | > 100 µM (inactive) | > 100 µM (inactive) | > 100 µM (inactive) | > 100 |
| O=C(c1ccco1)N(C(=S)N1CCN(c2ccccn2)CC1)c1ccccc1 | > 100 µM (inactive) | > 100 µM (inactive) | > 100 µM (inactive) | > 100 µM (inactive) | > 100 µM (inactive) | > 100 µM (inactive) | > 100 µM (inactive) | > 100 µM (inactive) | > 100 µM (inactive) | > 100 µM (inactive) | > 100 µM (inactive) | > 100 µM (inactive) | > 100 µM (inactive) | > 100 µM (inactive) | > 100 µM (inactive) | > 100 µM (inactive) | > 100 |
| CCN(CC)CCNC(=O)c1ccc([N+](=O)[O-])cc1OC | > 100 µM (inactive) | > 100 µM (inactive) | > 100 µM (inactive) | > 100 µM (inactive) | > 100 µM (inactive) | > 100 µM (inactive) | > 100 µM (inactive) | > 100 µM (inactive) | > 100 µM (inactive) | > 100 µM (inactive) | > 100 µM (inactive) | > 100 µM (inactive) | > 100 µM (inactive) | > 100 µM (inactive) | > 100 µM (inactive) | > 100 µM (inactive) | > 100 |
| C=CCCC1(C)CCCNC1=S (stereo not given) | > 100 µM (inactive) | > 100 µM (inactive) | > 100 µM (inactive) | > 100 µM (inactive) | > 100 µM (inactive) | > 100 µM (inactive) | > 100 µM (inactive) |  | > 100 µM (inactive) | > 100 µM (inactive) | > 100 µM (inactive) | > 100 µM (inactive) | > 100 µM (inactive) | > 100 µM (inactive) | > 100 µM (inactive) | > 100 µM (inactive) | > 100 |
| O=C(O)/C(=C/c1c(O)ccc2ccccc12)c1csc(-c2nc(/C(=C\c3c(O)ccc4ccccc34)C(=O)O)cs2)n1 | 23.3 µM (inactive) | 8.45 µM (inactive) | 1.86 µM (inactive) | 11.7 µM (inactive) | 19 µM (inactive) | 13.3 µM (inactive) | 3.21 µM (inactive) | 10 µM (inactive) | 11.2 µM (inactive) | 6.17 µM (inactive) | 19.4 µM (inactive) |  | 11 µM (inactive) | 24 µM (inactive) | 10.4 µM (inactive) | 22.2 µM (inactive) | 14.4 |
| Cc1ccccc1NC(=O)C1C(=O)N(c2ccccc2C)C(=O)/C1=N\NC(N)=O (stereo not given) | > 100 µM (inactive) | > 100 µM (inactive) | > 100 µM (inactive) | > 100 µM (inactive) | > 100 µM (inactive) | > 100 µM (inactive) | > 100 µM (inactive) | > 100 µM (inactive) | > 100 µM (inactive) | > 100 µM (inactive) | > 100 µM (inactive) | > 100 µM (inactive) | 37.5 µM (inactive) | > 100 µM (inactive) | > 100 µM (inactive) | > 100 µM (inactive) | > 100 |
